Measured values taken from patent US9733254B2, “Methods and apparatus for the in vitro modelling of drug administration” (THE UNIVERSITY OF BATH, priority 2012, dated 2017).

Experiments:
[1] = Release of excipient from the simulated injection site, HPLC of bath aliquots; format: in vitro ADME; settings: excipient of generic insulin formulation, 0.5 ml injected; buffer in the cassette
Experimental: Shortly after injection, the protein solubility level decreased as indicated by the drop in % T. As the environment within the cassette equilibrated with the surrounding physiological conditions and the pH shifted towards 7.4, the protein re-solubilised as indicated by the increase in the % T level. The release profile of an excipient, m-cresol, from the injection site was determined from aliquots taken from the surrounding buffer bath at different time points by HPLC following the method specified in “Biodegradation characterisation and kinetics of m-cresol by Lysinibacillus cresolivorans” in Water SA (Online) vol. 37 no. 1 Pretoria January 2011.

[2] = Diffusion through the DERMAROLLER-modified 14000 MWCO dialysis membrane; format: physicochemical; settings: modified membrane with cut off of 14000 MWCO
Text: As an example, the membrane used in the system was Biodesing dialysis tubing with a molecular weight cut off diameter of 14000 Da. A 3 cm piece of the tubing was cut and the edges were removed to form two sheets of membrane. These sheets of membrane, whilst not separated from each other, were fully hydrated by soaking in deionised water and subsequently placed on Styrofoam covered with aluminium foil. The membrane permeability was then modified using a DERMAROLLER microneedle device. The membrane used can be transparent. […] In contrast, for rhodamine (MW~500 Da) the diffusion through the same membrane took place in one phase. The holes can be made with a DERMAROLLER microneedle device, or with any other method producing size and spatial distribution of holes suitable for the application. The diameter of the holes should be between 0.1 and a 10 micrometers and the spacing between any two adjacent holes between 0.1 and 10 mm.
As an example (FIG. 4), for a series of fluorescent small organic molecules (methylene blue and rhodamine) and fluorescently labelled dextrans with molecular weights between 4 kDa and 2 MDa, the rate constant of diffusion (k, [min^−1]) through the membranes after the modification followed the equation k=−0.01362 log10 (MW of the compound)+0.06065. (R^2=0.9996)

Row | Compound | time until all the excipient in the injected formulation has left the injection site [1] | mode of diffusion through the modified membrane [2]
1 | Cc1cccc(O)c1 [m-cresol] | less than 50 minutes | 
2 | CN(C)c1ccc2nc3ccc(=[N+](C)C)cc-3sc2c1 [methylene blue] |  | two phase diffusion
3 | rhodamine |  | one phase
